# Results from patent US20100092526A1, “NANOEMULSION THERAPEUTIC COMPOSITIONS AND METHODS OF USING THE SAME” (NanoBio Corporation, priority 2008, published 2010).
# Experiments:
# Assay type in all cases: cell-based
# Klebsiella pneumoniae = experiment: MIC/MBC of nanoemulsions against gram-negative isolates (CLSI, alamar blue); conditions: Klebsiella pneumoniae (n = 5); for MIC50 / MIC Range: nanoemulsions in the presence of 5 mM EDTA
# Acinetobacter baumannii = experiment: as above; conditions: Acinetobacter baumannii (n = 5); for MIC50: nanoemulsions in the presence of 5 mM EDTA
# Pseudomonas aeruginosa = experiment: as above; conditions: Pseudomonas aeruginosa (n = 5); for MIC50 / MIC Range: nanoemulsions in the presence of 5 mM EDTA
# Burkholderia cepacia = experiment: as above; conditions: Burkholderia cepacia (n = 5), nanoemulsions in the presence of 5 mM EDTA; for MIC Range: in µg/mL
# Escherichia coli = experiment: as above; conditions: Escherichia coli (n = 5)
# Proteus mirabilis = experiment: as above; conditions: Proteus mirabilis (n = 5); for MIC50 / MIC Range: nanoemulsions in the presence of 5 mM EDTA
# [1] = system: Stenotrophomonas maltophilia; experiment: as above; conditions: Stenotrophomonas maltophilia (n = 5); nanoemulsions in the presence of 5 mM EDTA
# Haemophilus influenzae = experiment: Susceptibility (MIC/MBC) of H. influenzae clinical isolates
# [2] = nanoemulsions in the presence of 5 mM EDTA
Compound,% resistant (Klebsiella pneumoniae) [%],% susceptible (Klebsiella pneumoniae) [%],MIC50 (Klebsiella pneumoniae) [µg/mL],MIC Range (Klebsiella pneumoniae; in µg/mL),% resistant (Acinetobacter baumannii) [%],% susceptible (Acinetobacter baumannii) [%],MIC50 (Acinetobacter baumannii) [µg/mL],% resistant (Pseudomonas aeruginosa) [%],% susceptible (Pseudomonas aeruginosa) [%],MIC50 (Pseudomonas aeruginosa) [µg/mL],MIC50 (Burkholderia cepacia) [µg/mL],MIC Range (Burkholderia cepacia),% resistant (Escherichia coli) [%],% susceptible (Escherichia coli) [%],MIC50 (Escherichia coli; [2]) [µg/mL],% resistant (Proteus mirabilis) [%],% susceptible (Proteus mirabilis) [%],MIC50 (Proteus mirabilis) [µg/mL],MIC Range (Proteus mirabilis; in µg/mL),MIC50 [1] [µg/mL],also measured
Gentamicin,0.0,100.0,≤ 2,<=2,20.0,80.0,≤ 2,0.0,100.0,≤ 2,> 8,>8,20.0,80.0,≤ 2,0.0,100.0,≤ 2,<=2,> 8,MIC Range (Pseudomonas aeruginosa): <=2-4 ^
Piperacillin/tazobactam,0.0,80.0,2,1-64,20.0,80.0,2,0.0,100.0,2,4,2-32,0.0,100.0,2,0.0,100.0,≤ 0.5,–,> 64,"MIC Range (Pseudomonas aeruginosa; in µg/mL): 2-16; MIC Range (Escherichia coli; nanoemulsions in the presence of 5 mM EDTA, in µg/mL): 1-8; MIC Range (Proteus mirabilis): <=0.5-1 ^"
CN(C)[C@@H]1C(O)=C(C(N)=O)C(=O)[C@@]2(O)C(O)=C3C(=O)c4c(O)cccc4[C@@](C)(O)[C@H]3C[C@@H]12 [Tetracycline],0.0,100.0,≤ 2,–,20.0,80.0,≤ 2,40.0,0.0,8,> 8,>8,80.0,20.0,> 8,100.0,0.0,> 8,>8,> 8,"MIC Range (Klebsiella pneumoniae): <=2-4 ^; MIC Range (Haemophilus influenzae; H. influenzae isolates of Table 6, nanoemulsion values as μg CPC/ml or μg BA/ml): 0.5 to 16 µg/mL; MIC (Haemophilus influenzae; Haemophilus influenzae, strain 30, nanoemulsion values as μg CPC/ml or μg BA/ml): 0.5 µg/mL; MIC (Haemophilus influenzae; Haemophilus influenzae, strain 32, nanoemulsion values as μg CPC/ml or μg BA/ml): 2 µg/mL; MIC (Haemophilus influenzae; Haemophilus influenzae, strain 33, nanoemulsion values as μg CPC/ml or μg BA/ml): 1 µg/mL; MIC (Haemophilus influenzae; Haemophilus influenzae, strain 34, nanoemulsion values as μg CPC/ml or μg BA/ml): 1 µg/mL; MIC (Haemophilus influenzae; Haemophilus influenzae, strain 35, nanoemulsion values as μg CPC/ml or μg BA/ml): 0.5 µg/mL; MIC (Haemophilus influenzae; Haemophilus influenzae, strain 36, nanoemulsion values as μg CPC/ml or μg BA/ml): 1 µg/mL; MIC (Haemophilus influenzae; Haemophilus influenzae, strain 37, nanoemulsion values as μg CPC/ml or μg BA/ml): 1 µg/mL; MIC (Haemophilus influenzae; Haemophilus influenzae, strain 38, nanoemulsion values as μg CPC/ml or μg BA/ml): 0.5 µg/mL; MIC (Haemophilus influenzae; Haemophilus influenzae, strain 41, nanoemulsion values as μg CPC/ml or μg BA/ml): 1 µg/mL; MIC (Haemophilus influenzae; Haemophilus influenzae, strain 42, nanoemulsion values as μg CPC/ml or μg BA/ml): 1 µg/mL; MIC (Haemophilus influenzae; Haemophilus influenzae, strain 49247, nanoemulsion values as μg CPC/ml (P4075EC, W205EC) or μg BA/ml (W205GBA2)): 16 µg/mL; MIC90 (Haemophilus influenzae; Haemophilus influenzae, H. influenzae isolates of Table 6, nanoemulsion values as μg CPC/ml or μg BA/ml): 2 µg/mL"
